Measured values published in patent publication US20260061066A1, “ANTI-GRP78 ANTIBODY, IMMUNOCONJUGATE AND USES THEREOF” (UCT BIOSCIENCE CO., LTD., priority 2024, published 2026).

Key:
THP-1 cells = assay: In-vitro cytotoxicity, CCK-8 assay; assay type: cell-based, human; conditions: THP-1 (AML), cell viability after 48 hours
Method: (§1) In-Vitro cytotoxicity assays of GID10-ADC, DM1 and GID10 on HL-60, HCC1806, MDA-MB-231, Raji, RPMI8226, NCI-H929, MM.1S, G-361, THP-1, PL45, AsPC-1, KLM-1, OV90, 4Tl and EL-4 cells. Cell viability was measured after 48 hours using Cell Counting Kit-8 (CCK-8) assay (DOJINDO™, Cat. No. CK04-13), as shown in Table 3. For example, on Day 0, THP-1 cells were seeded at […] cells per well in a 96-well plate and treated with diluted test compounds. The cells were incubated for 48 hours at 37° C. with 5% CO2. On Day 2, 20 μl of CCK-8 was added to each well, followed by incubation for 1-4 hours. Absorbance at 450 nm was then measured to assess cell viability and the impact of the test compounds. […] Cell viability was measured after 48 hours using the Cell Counting Kit-8 (CCK-8) assay (DOJINDO™, Cat. No. CK04-13). IC50 (M) was calculated to determine the efficacy of the antibody, DM1, and ADC on the various cancer cell lines.
(§2) In-Vitro cytotoxicity assays of Dxd-conjugated ADC and free payload Dxd on THP-1, NCI-N87, Capan-1, and KLM-1 cells. Cell viability was measured after 48 hours using Cell Counting Kit-8 (CCK-8) assay (DOJINDO™, Cat. No. CK04-13), as shown in Table 4. […] Absorbance at 450 nm was then measured to assess cell viability and the impact of the test compounds. […] Cell viability was measured after 48 hours using the Cell Counting Kit-8 (CCK-8) assay (DOJINDO™, Cat. No. CK04-13). […]

KLM-1 = assay: In-vitro cytotoxicity, CCK-8 assay; assay type: cell-based; conditions: KLM-1 (pancreatic cancer), cell viability after 48 hours
Method: as §1, §2

NCI-N87 = assay: In-vitro cytotoxicity, CCK-8 assay; assay type: cell-based; conditions: NCI-N87 (gastric cancer); cell viability after 48 hours
Method: (§3) In-Vitro cytotoxicity assays of Dxd-conjugated ADC and free payload Dxd on THP-1, NCI-N87, Capan-1, and KLM-1 cells. Cell viability was measured after 48 hours using Cell Counting Kit-8 (CCK-8) assay (DOJINDO™, Cat. No. CK04-13), as shown in Table 4. For example, on Day 0, THP-1 cells were seeded at 5×10^4 cells per well in a 96-well plate and treated with diluted test compounds. The cells were incubated for 48 hours at 37° C. with 5% CO2. On Day 2, 15 μl of CCK-8 was added to each well, followed by incubation for 1-4 hours. Absorbance at 450 nm was then measured to assess cell viability and the impact of the test compounds. For suspension cells, such as THP-1, 2-5×10^4 cells per well were inoculated into a 96-well plate. For adherent cells, such as NCI-N87, Capan-1, and KLM-1, 1.5-5×10^3 cells per well were inoculated based on their doubling time. As shown in FIGS. 6A-6C, THP-1, and KLM-1 cells are not killed in the presence of G1D10 antibody alone. […] Linker-Dxd was used as the positive control agent. The cell lines tested included THP-1, NCI-N87, Capan-1, and KLM-1 cells. Cell viability was measured after 48 hours using the Cell Counting Kit-8 (CCK-8) assay (DOJINDO™, Cat. No. CK04-13). IC50 (M) was calculated to determine the efficacy of the Linker-Dxd and the Dxd-conjugated ADC on the various cancer cell lines.

Capan-1 = assay: In-vitro cytotoxicity, CCK-8 assay; assay type: cell-based; conditions: Capan-1 (pancreatic cancer); cell viability after 48 hours
Method: as §3

MM.1S = assay: In-vitro cytotoxicity, CCK-8 assay; assay type: cell-based; conditions: MM.1S (MM); cell viability after 48 hours
Method: (§4) In-Vitro cytotoxicity assays of GID10-ADC, DM1 and GID10 on HL-60, HCC1806, MDA-MB-231, Raji, RPMI8226, NCI-H929, MM.1S, G-361, THP-1, PL45, AsPC-1, KLM-1, OV90, 4Tl and EL-4 cells. Cell viability was measured after 48 hours using Cell Counting Kit-8 (CCK-8) assay (DOJINDO™, Cat. No. CK04-13), as shown in Table 3. For example, on Day 0, THP-1 cells were seeded at […] cells per well in a 96-well plate and treated with diluted test compounds. The cells were incubated for 48 hours at 37° C. with 5% CO2. On Day 2, 20 μl of CCK-8 was added to each well, followed by incubation for 1-4 hours. Absorbance at 450 nm was then measured to assess cell viability and the impact of the test compounds. For suspension cells, such as HL-60, Raji, RPMI8226, NCI-H929, MM. 1S, and THP-1, 5×10^4 cells per well were inoculated into a 96-well plate. For adherent cells, such as HCC1806, MDA-MB-231, G361, PL45, AsPC-1, KLM-1, OV90, and EL-4, 1.5-5×10^3 cells per well were inoculated based on their doubling time. Adherent cells with a doubling time of less than 24 hours were seeded at 1.5×10^3 cells per well (EL-4), while those with a doubling time of more than 24 hours were seeded at 5×10^3 cells per well. […] DM1 was used as the positive control agent. The cell lines tested included HL-60, HCC1806, MDA-MB-231, Raji, RPMI8226, NCI-H929, MM.1S, G-361, THP-1, PL45, AsPC-1, KLM-1, OV90, 4T1, and EL-4 cells. Cell viability was measured after 48 hours using the Cell Counting Kit-8 (CCK-8) assay (DOJINDO™, Cat. No. CK04-13). IC50 (M) was calculated to determine the efficacy of the antibody, DM1, and ADC on the various cancer cell lines.

NCI-H929 = assay: In-vitro cytotoxicity, CCK-8 assay; assay type: cell-based; conditions: NCI-H929 (MM); cell viability after 48 hours
Method: as §4

4T1 = assay: In-vitro cytotoxicity, CCK-8 assay; assay type: cell-based; conditions: 4T1 (murine breast cancer, stage IV); cell viability after 48 hours
Method: as §4

ASPC1 = assay: In-vitro cytotoxicity, CCK-8 assay; assay type: cell-based; conditions: ASPC1 (pancreatic cancer); cell viability after 48 hours
Method: as §4

OV90 = assay: In-vitro cytotoxicity, CCK-8 assay; assay type: cell-based; conditions: OV90 (ovarian cancer); cell viability after 48 hours
Method: as §4

HCC1806 = assay: In-vitro cytotoxicity, CCK-8 assay; assay type: cell-based; conditions: HCC1806 (TNBC); cell viability after 48 hours
Method: as §4

EL4 = assay: In-vitro cytotoxicity, CCK-8 assay; assay type: cell-based; conditions: EL4 (murine lymphoma); cell viability after 48 hours
Method: as §4

Raji = assay: In-vitro cytotoxicity, CCK-8 assay; assay type: cell-based; conditions: Raji (DLBCL); cell viability after 48 hours
Method: as §4

G361 = assay: In-vitro cytotoxicity, CCK-8 assay; assay type: cell-based; conditions: G361 (melanoma); cell viability after 48 hours
Method: as §4

MDA-MB-231 = assay: In-vitro cytotoxicity, CCK-8 assay; assay type: cell-based; conditions: MDA-MB-231 (TNBC); cell viability after 48 hours
Method: as §4

RPMI8226 = assay: In-vitro cytotoxicity, CCK-8 assay; assay type: cell-based; conditions: RPMI8226 (MM); cell viability after 48 hours
Method: as §4

H460 = assay: In-vitro cytotoxicity, CCK-8 assay; assay type: cell-based; conditions: H460 (lung cancer); cell viability after 48 hours
[1] = target: cell surface glucose-related protein 78 (GRP78) on cancer cell lines (human) (UniProt P11021); assay: flow cytometry, OVCAR3 cells; A488-anti-mouse-IgG alone 1.8%
Sequence of cell surface glucose-related protein 78 (GRP78) on cancer cell lines (human) (P11021 19-654): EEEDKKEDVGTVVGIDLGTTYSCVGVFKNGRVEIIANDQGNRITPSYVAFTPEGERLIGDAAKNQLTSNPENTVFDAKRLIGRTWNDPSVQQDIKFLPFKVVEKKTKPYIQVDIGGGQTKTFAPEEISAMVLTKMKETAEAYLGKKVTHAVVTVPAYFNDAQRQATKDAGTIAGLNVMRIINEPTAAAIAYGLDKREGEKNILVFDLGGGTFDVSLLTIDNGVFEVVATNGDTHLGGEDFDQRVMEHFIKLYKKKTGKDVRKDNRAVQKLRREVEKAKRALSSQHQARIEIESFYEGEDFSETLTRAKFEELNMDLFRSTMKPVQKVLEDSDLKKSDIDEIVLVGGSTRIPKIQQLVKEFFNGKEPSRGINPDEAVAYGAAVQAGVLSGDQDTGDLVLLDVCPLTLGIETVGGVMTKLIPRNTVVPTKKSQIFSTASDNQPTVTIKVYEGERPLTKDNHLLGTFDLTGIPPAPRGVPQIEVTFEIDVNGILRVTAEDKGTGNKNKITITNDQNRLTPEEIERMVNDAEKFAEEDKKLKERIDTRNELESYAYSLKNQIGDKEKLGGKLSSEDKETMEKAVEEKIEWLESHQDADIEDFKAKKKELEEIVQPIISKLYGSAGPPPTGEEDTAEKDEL

Compound “N-hydrozysuccinimide (NHS)-VC-para-aminobenzyl carbamate (PABC)-Dxd [Linker-Dxd]” has an IC50 (THP-1 cells; Table 4) of 0.0612 µM, an IC50 (KLM-1; Table 4) of 0.184 µM and an IC50 (NCI-N87) of 0.161 µM. It also gave an IC50 (Capan-1) of 0.296 µM.

`COc1cc2cc(c1Cl)N(C)C(=O)C[C@H](OC(=O)[C@H](C)N(C)C(=O)CCS)[C@]1(C)O[C@H]1[C@H](C)[C@@H]1C[C@@](O)(NC(=O)O1)[C@H](OC)/C=C/C=C(\C)C2` [DM1, emtansine (DM1)] was tested, and the IC50 (THP-1 cells; Table 3) was 0.00463 µM, the IC50 (KLM-1; Table 3) was 0.00161 µM and the IC50 (MM.1S) was 0.00486 µM. It also gave an IC50 (NCI-H929) of 0.00113 µM, an IC50 (4T1) of 0.083 µM and an IC50 (ASPC1) of 0.0602 µM. For the same compound, the IC50 (OV90) was 0.0552 µM, the IC50 (HCC1806) was 0.0272 µM and the IC50 (EL4) was 0.00152 µM. The IC50 (Raji) was 0.00435 µM, the IC50 (G361) was 0.00311 µM and the IC50 (MDA-MB-231) was 0.0285 µM. The IC50 (RPMI8226) was 0.00179 µM and the IC50 (H460) was 0.00168 µM.

Work on “anti-GRP78 antibody C38 (eBioscience, Cat. No. 14-9768-82)” yielded a % (flow cytometry cell surface staining) [1] of 2.3%.
